Results: patent US10744114B2, “Use of eupatilin as pharmaceutical composition for prevention and treatment of fibrosis using EMT inhibitory activity” (OSTEONEUROGEN INC., priority 2016, dated 2020)

Test system: ONGHEPA1 cells
Test: TGF-β-induced fibrosis of ONGHEPA1 cells (microscope)
Assay type: cell-based, mouse
Details: for inhibition of the progress of fibrosis (differentiation into myofibroblasts): TGF-β 5 ng/mL plus 50 μM compound, 24 hr
Description: The liver tissue was separated from C57BL/6 mice and a single-cell suspension thereof was made, and immortalized cells were obtained through continuous culture and were confirmed to be mesenchymal stem cells (MSC) of HSC via RT-PCR (Reverse Transcription Polymerase Chain Reaction) using MC (Immunohistochemistry) and FACS (Fluorescence-Activated Cell Sorting). This cell line was called “ONGHEPA1”, and was deposited with the Korean Collection for Type Cultures (KCTC) of the Korea Research Institute of Bioscience and Biotechnology and assigned accession number KCTC13086BP.
Using such properties of HSC, the fibrotic characteristics of ONGHEPA1 were measured. To induce fibrosis, TGF-β (transforming growth factor beta) was added, and the morphologies of the cells were observed after 6 hr, 12 hr, 24 hr, and 48 hr. Consequently, fibrosis was confirmed to progress considerably after 24 hr and further progress after 48 hr (A of FIG. 6).
While ONGHEPA1 cells were incubated, they were treated with TGF-β to induce fibrosis, and 50 μM of eupatilin was added to the culture medium.
In order to more clearly evaluate the effect of eupatilin as above, changes were measured when ONGHEPA1 cells were first treated with eupatilin, washed to remove eupatilin and then treated with TGF-β to induce fibrosis. […] This means that eupatilin is directly associated with the course of fibrosis to thus inhibit the progress of fibrosis.
On the contrary, changes were measured when ONGHEPA1 cells were first treated with TGF-β to induce fibrosis, washed to remove TGF-β and then treated with eupatilin. […] Even when fibrosis was already progressed, eupatilin was able to restore the cells to their original normal condition.
In order to more clearly evaluate whether eupatilin was able to restore the cells that already undergone fibrosis to normal cells, changes were measured when ONGHEPA1 cells were treated with TGF-β for 24 hr to induce complete fibrosis and then treated with eupatilin. […] This means that fibrosis that has progressed considerably can be effectively treated using eupatilin.
The effects of various chromone derivatives other than eupatilin on fibrosis were measured in the same manner as in Example 3-3. While ONGHEPA1 cells were incubated, fibrosis was induced by TGF-β, and a chromone derivative was added at a concentration of 50 μM to the culture medium.

Q: `COc1ccc(-c2cc(=O)c3c(O)c(OC)c(O)cc3o2)cc1OC` [eupatilin, 2-(3,4-dimethoxyphenyl)-5,7-dihydroxy-6-methoxy-chromone] was tested. Which “inhibition of the progress of fibrosis (differentiation into myofibroblasts)” value did it give?
A: fibrosis were not observed

Q: And the “inhibition of the progress of fibrosis (differentiation into myofibroblasts)” value (listed as Chemical Formula 2)?
A: superior fibrosis-inhibiting effects

Q: What about the “restoration of cells after TGF-β pretreatment” value (TGF-β 1 to 12 hr, washed, then eupatilin 50 μM 24 hr) of the same compound?
A: normal cells such as a control group were maintained

Q: What about the “restoration of completely fibrotic cells” value (TGF-β 24 hr, washed, then eupatilin 50 μM and TGF-β 24 hr) of the same compound?
A: restore the cells in which fibrosis has been completely induced by TGF-β to their normal condition

Q: What about the “inhibition of the progress of fibrosis after pretreatment” value (eupatilin 2 to 6 hr, washed, then TGF-β 24 hr) of the same compound?
A: the progress of fibrosis was not inhibited

Q: What about the “influence on normal HSC” value (eupatilin pretreatment, washed, then TGF-β) of the same compound?
A: no influence on normal HSC
